The values that follow are results of earlier work, collected in patent publication US20030073580A1, “Composition for treating cells and method for qualitatively and quantitatively customizing the formulation thereof” (priority 2001, published 2003).

In the series the test system is plant leaves.
Where [1] appears, read: Sulfate 0.1 Mg SO4/L (0.0334 milligrams elemental S).
Where [2] appears, read: Sulfate 1.0 Mg SO4/L (0.3340 milligrams elemental S).
Where [3] appears, read: Sulfate 10.0 Mg SO4/L (3.3400 milligrams elemental S).
Setting [4] is: Sulfate 50.0 Mg SO4/L (16.7000 milligrams elemental S).
Setting [5] is: Sulfate 200.0 Mg SO4/L (66.8000 milligrams elemental S).

Like-named read-outs stand apart in the source and are kept apart here.

As to `O=S(=O)(O)O` [Sulfate], under setting [1], the “Inorganic S” value is 0.003 Percentage of Dry Weight, the “Leaf Dry Wt” value is reported as 1.1 g/plant, the “Nitrate N” value is 1.39 Percentage of Dry Weight and the “Organic N” value was 2.23 Percentage of Dry Weight. Under setting [1], the “Organic S” value is on record as 0.11 Percentage of Dry Weight and the “Protein N” value was 0.96 Percentage of Dry Weight. For the same compound, under setting [2], the “Inorganic S” value is reported as 0.003 Percentage of Dry Weight, the “Leaf Dry Wt” value is reported as 2.4 g/plant, the “Nitrate N” value is recorded as 1.37 Percentage of Dry Weight and the “Organic N” value is 2.21 Percentage of Dry Weight. Further, under setting [2], the “Organic S” value is given as 0.12 Percentage of Dry Weight and the “Protein N” value is recorded as 1.28 Percentage of Dry Weight. In addition, under setting [3], the “Inorganic S” value is 0.009 Percentage of Dry Weight, the “Leaf Dry Wt” value is 3.4 g/plant, the “Nitrate N” value is recorded as 0.06 Percentage of Dry Weight and the “Organic N” value is 1.19 Percentage of Dry Weight. Under setting [3], the “Organic S” value was 0.17 Percentage of Dry Weight and the “Protein N” value is on record as 2.56 Percentage of Dry Weight. Also, under setting [4], the “Inorganic S” value is 0.100 Percentage of Dry Weight, the “Leaf Dry Wt” value was 4.7 g/plant, the “Nitrate N” value is given as 0.00 Percentage of Dry Weight and the “Organic N” value is reported as 0.51 Percentage of Dry Weight. Further, under setting [4], the “Organic S” value is 0.26 Percentage of Dry Weight and the “Protein N” value is recorded as 3.25 Percentage of Dry Weight. For the same compound, under setting [5], the “Inorganic S” value is on record as 0.360 Percentage of Dry Weight, the “Leaf Dry Wt” value was 4.7 g/plant, the “Nitrate N” value is listed as 0.10 Percentage of Dry Weight and the “Organic N” value is listed as 0.45 Percentage of Dry Weight. Under setting [5], the “Organic S” value is listed as 0.25 Percentage of Dry Weight and the “Protein N” value was 3.20 Percentage of Dry Weight.
In the case of `S1SSSSSSS1` [sulfur], the “free nitrate nitrogen in plant leaves” value (available sulfur approximately 16.7 mg per liter) is given as “zero”. Besides, under “concentration at which free nitrate drops to zero and organic sulfur and protein nitrogen reach their maximum”, the “optimal concentration of available sulfur in a fertilizer mixture” value is given as “approximately 16.7 mg per liter”.
